# Where a SMILES comes first, the peptide text is derived from it. [ ]: non-standard residue; d: D form. The star is where a group is joined. ξ: configuration not given here. ξGly(4-Pip(1-amidino)) = N=C(N)N1CCC(C(N)C(=O)O)CC1; ξGly(piperidin-4-yl) = NC(C(=O)O)C1CCNCC1; ξTle = CC(C)(C)C(N)C(=O)O; ξP = O=C(O)C1CCCN1; X1 = CC(CS)C(=O)*
# Tests used:
# [1] = system: CT26 cells; assay: MTT cell viability assay; assay type: cell-based, murine; details: 24 h; for toxicity / viability drop in the absence of radiation: 7-DHC concentration below 12.5 μg/mL
# Method: (§1) CT26, a murine colorectal carcinoma cell line, was cultured following the protocol provided by the ATCC. A complete growth medium was prepared by adding 50 mL fetal bovine serum (FBS; Atlanta Biologicals, Cat #S11150) and 5 mL penicillin-streptomycin (Corning Cat #30-002-CI) to 450 mL of RPMI 1640 medium (Corning, Cat #10-104-CV). The cells were sub-cultured every three days and stored in a Thermo Scientific Heracell 150i incubator at 37° C. A day before the experiment, the cells were washed with PBS and collected by trypsinization (37° C., 2 min) followed by neutralization with cell culture medium and centrifugation (1200 rpm, 5 min). The supernatant was removed, and cells were dispersed in new cell culture medium. The cell density was counted using a hemocytometer (Hausser Scientific, Cat #3200) to seed the desired number of cells on the experimental plate(s).
# (§2) The cell viability was studied with CT26 cells using the standard MTT assays. Briefly, CT26 cells (10,000 cells per well) were seeded on clear 96-well plates (Corning Costar, Cat #3599). […] 20 μL of 10 mg/mL 3-(4,5-Dimethylthiazolyl-2)-2,5-diphenyltetrazolium bromide (MTT) solution was added into each well. After 4 h incubation at 37° C. and 5% CO2, the solution was discarded from each well, and 100 μL of DMSO was added to each well resulting in purple suspensions. The absorbance at 570 nm was measured using a BioTek Synergy MX multi-mode microplate reader.
# [2] = serum calcium level; assay type: in vivo, balb/c mice; details: 200 μg/kg injected, healthy mice; tolerated level for mice 8.0-11.5 mg/dl
# Method: Blood samples were collected at 0, 2, 6, and 24 h for analysis.
# [3] = compared to wildtype NTS; cited from earlier work
# [4] = target: NTSR1 (Homo sapiens, UniProt P30989); details: compared to wildtype NTS; cited from earlier work
# [5] = MTT cell viability assay; assay type: cell-based, murine; details: mouse, CT26 cells, no radiation, read-out: IC50 (cytotoxicity)
# Method: as §1, §2
# [6] = LC/MS analysis of autooxidation and lipid peroxidation; details: 320 kV, 5 Gy
# Method: Samples were generated by mixing solutions of 10 mg/mL 7-DHC, or 5 mg/mL DHCEO in 5 mL solvent containing 4 mL CH3CN+1 mL Mil-Q-H2O (or 1 mL H2O2). Samples were treated with either PBS or 5 Gy IR followed by incubation for 24 h. The lipid sample was prepared by using 16:0-18:2 PC mixed with 7-DHC at a 3:1 mole ratio in 2:1 v/v of CHCl3:MeOH solution. The solvent was then rotor evaporated and the mixture was rehydrated in 1 mL Mil-Q-H2O. Samples were subjected to LC/MS analysis. Liquid chromatography was performed on an Applied Biosystems 140 B solvent delivery system using water with 0.1% formic acid as solvent A and acetonitrile as solvent B. The linear solvent gradient was from 70% B to 95% B over 20 minutes at a flow rate of 50 μl/min. A Thermo Hypersil-Keystone 1×150 mm Biobasic-4 column with 5 μm particle size and 300 A pore size was used. The effluent was directed into a Bruker Daltonics Esquire 3000 plus ion trap mass spectrometer equipped with an atmospheric pressure chemical ionization (electrospray ionization for the lipid sample) source. The instrument was scanned in enhanced mode from 340-500 m/z with the capillary at 4 KV. The dry as temperature was held at 300 degrees C. at a flow rate of 41/min nitrogen. The nebulizer was set to 15 PSI of nitrogen. The vaporizer temperature was held at 380 degrees C.
# [7] = cited from earlier work
# Sequence of NTSR1 (P30989 whole entry): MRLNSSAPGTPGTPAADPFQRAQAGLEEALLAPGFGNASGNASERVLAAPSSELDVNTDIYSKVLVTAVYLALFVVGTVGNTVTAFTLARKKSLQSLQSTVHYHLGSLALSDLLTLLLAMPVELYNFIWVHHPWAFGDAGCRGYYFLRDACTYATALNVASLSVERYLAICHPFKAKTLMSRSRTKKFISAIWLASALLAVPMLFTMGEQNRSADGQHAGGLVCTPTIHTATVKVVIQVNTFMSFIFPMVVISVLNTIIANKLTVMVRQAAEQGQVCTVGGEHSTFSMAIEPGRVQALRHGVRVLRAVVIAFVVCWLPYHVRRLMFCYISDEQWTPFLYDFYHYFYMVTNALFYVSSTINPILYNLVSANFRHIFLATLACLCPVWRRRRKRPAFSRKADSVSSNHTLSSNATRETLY
smiles,measurement,setting,value
"NCCC(=O)N[C@@H](Cc1cnc[nH]1)C(=O)O [carnosine, reference compound]",effect of co-incubation on toxicity induced by 7-DHC@PLGA NPs+IR,"[1]; MTT, IR 5 Gy",mitigated toxicity
C=C1/C(=C\C=C2/CCC[C@]3(C)[C@@H]([C@H](C)CCCC(C)(C)O)CC[C@@H]23)C[C@@H](O)C[C@@H]1O [calcitriol],serum calcium,[2],17.5 mg/dL
CC(C)C[C@H](NC(=O)C(NC(=O)[C@H](Cc1ccc(O)cc1)NC(=O)C1CCCN1C(=O)[C@H](CCCNC(=N)N)NC(=O)C(NC(=O)C1CCCN1C(=O)C(NC(=O)C(C)CS)C1CCNCC1)C1CCN(C(=N)N)CC1)C(C)(C)C)C(=O)O (stereo partly drawn) [NTSmut] (X1-[ξGly(piperidin-4-yl)][ξP][ξGly(4-Pip(1-amidino))]R[ξP]Y[ξTle]L-OH),biological stability,[3],much greater biological stability
same,avidity to NTSR1,[4],nanomolar
"CC(C)CCC[C@@H](C)[C@H]1CC[C@H]2C3=CC=C4C[C@@H](O)CC[C@]4(C)[C@H]3CC[C@]12C [7-DHC, 7-dehydrocholesterol]",IC50 at 24 h,[5],71.4 µg/mL
same,toxicity / viability drop in the absence of radiation,[1],Neither 7-DHC nor 7-DHC@PLGA NPs caused significant viability drop
same,toxicity / viability drop in the absence of radiation,[1]; listed as free 7-DHC,minimal toxicity
same,conversion after radiation (LC/MS),[6],converted to oxysterols
same,solubility in water,[7],poorly soluble in water

# — patent US20250114455A1, “RADIOSENSITIZING COMPOSITIONS AND METHODS OF USE THEREOF” (University of Georgia Research Foundation, Inc., priority 2022, published 2025)
